Active and inactive are the calls of the source.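 How the source made its calls: active means maximal percent inhibition of the deubiquitinase OTUD3 of at least 30% across the tested doses; inactive means the rest.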
Molecular target: OTU domain-containing protein 3 (Homo sapiens) (UniProt Q5T2D3)
Test: Validation of screening hits, potency titration, in vitro enzymatic, OTU domain-containing protein 3 DUB inhibitors (AID 1645868)
Details: purified OTUD3, ubiquitin-rhodamine cleavage fluorescence, 2 h

Chain of OTU domain-containing protein 3 (Homo sapiens) (Q5T2D3 whole entry, looked up, the tested form may be a part): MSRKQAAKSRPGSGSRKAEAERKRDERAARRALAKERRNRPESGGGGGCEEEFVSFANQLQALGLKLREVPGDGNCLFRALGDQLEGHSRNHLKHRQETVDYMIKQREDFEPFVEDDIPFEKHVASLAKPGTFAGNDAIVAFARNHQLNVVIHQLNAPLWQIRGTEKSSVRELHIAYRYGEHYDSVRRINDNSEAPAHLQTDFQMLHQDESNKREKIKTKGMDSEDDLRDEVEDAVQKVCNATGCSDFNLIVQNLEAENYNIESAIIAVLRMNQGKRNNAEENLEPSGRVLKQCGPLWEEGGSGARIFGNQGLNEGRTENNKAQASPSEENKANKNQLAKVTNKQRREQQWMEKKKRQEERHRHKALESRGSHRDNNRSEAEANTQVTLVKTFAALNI

SMILES	IC50
Cc1ccc(Nc2nc(C(=O)NCc3ccc4c(c3)OCO4)cc3occc23)cc1Cl	> 50 µM (inactive)
N#Cc1ccc(NC(=O)COC(=O)c2ccc3ccccc3n2)cc1	> 50 µM (inactive)
CCCCOc1ccc(C(=O)Nc2ccc3c(c2)CCC(=O)N3CCC)cc1	> 50 µM (inactive)
COc1ccc(-c2cc3nc([C@H](C)NC(=O)Cc4ccccc4C)nn3cn2)cc1	6.66 µM
Cc1cc2nc(/C=C/c3ccccc3)n(Cc3cccc(F)c3)c2cc1C	> 50 µM (inactive)
CCN(CC)c1nc(F)c2c(c1F)S(=O)(=O)CCN2Cc1ccccc1	> 50 µM (inactive)
COc1cc(N)c(Cl)cc1C(=O)OCC(=O)c1ccc2c(c1)OCCO2	> 50 µM (inactive)
Cc1ccc(C)c(-c2cc3c(=O)n(Cc4noc(CN5CCCCC5)n4)ccn3n2)c1	> 50 µM (inactive)
CC(=O)c1ccc(Cc2ncc(C(F)(F)F)cc2Cl)s1	> 50 µM (inactive)
Cn1cccc1C(=O)N1CCCC2(C1)Nc1cccnc1NC2=NC1CCCC1 (stereo not drawn)	> 50 µM (inactive)
COc1ccc(/C=C/C(=O)Nc2cccc(S(=O)(=O)Nc3ccccc3Cl)c2)c(OC)c1	25.5 µM
COc1ccc(Cl)cc1NC(=O)c1cc(-c2ccccn2)n[nH]1	2.58 µM
Cc1nn(Cc2ccccc2)c(Cl)c1C(=O)NC1CCCc2ccccc21 (stereo not drawn)	> 50 µM (inactive)
COc1ccc(N2C(=O)[C@@H]3[C@H]4c5ccccc5C=CN4C(C(=O)Nc4ccc5c(c4)OCO5)[C@@H]3C2=O)cc1 (stereo partly drawn)	> 50 µM (inactive)
CC(Sc1n[nH]c2nc3ccccc3n12)C(=O)Nc1ccc2c(c1)OCCO2 (stereo not drawn)	> 50 µM (inactive)
CC1(C)CC(n2[nH]c(=O)c3c2NC(=O)CSC3c2ccc(OCc3ccccc3)cc2)CCO1 (stereo not drawn)	22.4 µM
Cc1nnc(-c2nnc(NCc3ccc(Cl)cc3)c3ccccc23)o1	> 50 µM (inactive)
Cc1cnnn1-c1ccc(C(=O)Nc2ccc(Cl)cc2)cc1	> 50 µM (inactive)
COc1ccc(Nc2nc3c(S(=O)(=O)c4ccc(C)cc4)nnn3c3ccsc23)c(OC)c1	40.1 µM
NS(=O)(=O)c1cc(C(=O)OCC(=O)c2ccc3c(c2)OCCO3)ccc1Cl	> 50 µM (inactive)
CC(C)CCCCCCCCCCC(=O)N(C)[C@H](CO)C(=O)N[C@H](C)C(=O)NCC(=O)N(C)C1C(=O)N[C@@H](C)C(=O)NC(C(=O)O)Cc2ccc(O)c(c2)-c2cc1ccc2O (stereo partly drawn)	> 50 µM (inactive)
Cc1noc(-c2cc(=O)n(CC(=O)NCc3ccccc3F)c3ccccc23)n1	25 µM
N#Cc1ccc(Cn2nnc(-c3cccc(Cl)c3)n2)cc1	> 50 µM (inactive)
CCOc1ccc(Nc2cc(C(=O)NCCc3ccccc3)c3ccccc3n2)cc1	35.4 µM

SMILES	IC50
O=C(Nc1cccc(F)c1)c1ncoc1-c1ccco1	> 50 µM (inactive)
Cc1ccc(-c2nc(-c3cccs3)cc(C(F)(F)F)c2C#N)cc1	> 50 µM (inactive)
O=C1c2c(O)cccc2C2(Oc3cccc4cccc(c34)O2)C2OC12 (stereo not drawn)	22.5 µM
CCc1ccc(C2c3c(oc4ccccc4c3=O)C(=O)N2c2nncs2)cc1 (stereo not drawn)	> 50 µM (inactive)
COc1ccc(NC(=O)c2ccc(Nc3nnc(C)c4ccccc34)cc2)cc1	> 50 µM (inactive)
CCCC(=O)Nc1ccc(SCc2nnc(-c3ccccc3)o2)cc1	> 50 µM (inactive)
COc1cccc2cccc(O)c12	> 50 µM (inactive)
Cc1cc2c(cc1C)NC(CC(=O)Nc1ccc(O)cc1)C(=O)N2 (stereo not drawn)	30.8 µM
CC(C)N1CC[C@@H]2[C@H](C1)CN2C(=O)Nc1cccc(F)c1	> 50 µM (inactive)
O=C(Cn1nc2c3c4c(sc3ncn2c1=O)CCCCC4)Nc1ccc(Cl)cc1F	17.6 µM
Cc1nnc(Sc2cc(C(=O)NCCN3CCCC3)c3ccccc3n2)s1	> 50 µM (inactive)
Cc1cc(/C=C2/C(=N)N3C(c4ccccc4)=CSC3=NC2=O)c(C)n1-c1ccc(F)cc1	> 50 µM (inactive)
CC[C@H](C)C[C@H]1CC[C@](O)([C@](C)(O)C(=O)N[C@@H]2C(=O)N3NCCC[C@@H]3C(=O)N(O)[C@@H](C)C(=O)NCC(=O)N3NCCC[C@H]3C(=O)N(O)[C@H](C)C(=O)O[C@H]2C(C)C)O[C@@H]1C	2.18 µM
Cn1ncc2c(=O)n(Cc3cccc(Cl)c3)cnc21	> 50 µM (inactive)
COCCNC(=O)c1ccnn1-c1ccc2ccc(-c3cccnc3)cn12	> 50 µM (inactive)
Cc1c(-c2ccccc2)oc2c(C(=O)OCC(=O)Nc3ccccc3F)cccc2c1=O	> 50 µM (inactive)
O=C(COC(=O)Cn1cnc2ccccc21)Nc1ccc2c(c1)OCCO2	> 50 µM (inactive)
COc1cc(OC)cc(C(=O)Nc2cnc(-c3ccccc3)nc2)c1	> 50 µM (inactive)
COCCNC(=O)c1ccn(-c2ccc3ccc(-c4ccncc4)cn23)n1	> 50 µM (inactive)
O=c1c2ccccc2c(-c2nc(-c3ccncc3)no2)cn1-c1ccccc1	> 5 µM (inactive)
C[C@@H](C(=O)NCc1ccc(F)cc1)N1C(=O)N2CCc3c([nH]c4ccccc34)[C@@]2(C)C1=O	24.1 µM
COc1cc(C(=O)OCc2csc(-c3ccccc3)n2)ccc1OCC(=O)Nc1ccc(F)cc1	> 50 µM (inactive)
O=C(Nc1cccc(N2CCCC2=O)c1)c1cccc2cccnc12	> 50 µM (inactive)
CC(CCc1ccccc1)NC(=O)C(=O)c1cn(CC(=O)N2CCOCC2)c2ccccc12 (stereo not drawn)	> 50 µM (inactive)

SMILES	IC50
COc1cccc(CC(=O)Nc2cc(F)c3nc(N4CCOCC4)ccc3c2)c1	> 50 µM (inactive)
Cc1cccc(NC(=O)CSc2nnc(-c3n[nH]c4c3CCC4)n2N)c1	31.6 µM
Cc1cccc(NC(=O)CSc2ncnc3c2sc2nc(CC(C)C)c4c(c23)CCC4)c1	> 50 µM (inactive)
COc1cc(Cl)ccc1Nc1ncc(C(=O)Nc2cc(OC)c(OC)c(OC)c2)c2ccccc12	0.121 µM
COc1ccc(-c2[nH]c3ccccc3c2SCCNC(=O)c2ccc(S(=O)(=O)N3CCOCC3)cc2)cc1	> 50 µM (inactive)
CC1=C(C(=O)Nc2ccccc2C)C(c2ccc(OCc3ccccc3F)cc2)n2ncnc2N1 (stereo not drawn)	24 µM
CCOc1ccc(CCNC(=O)c2ccc3c(c2)N(CC)C(=O)c2ccccc2S3)cc1OCC	> 50 µM (inactive)
CC(=O)c1oc2nc3c(c(-c4ccc(Cl)cc4)c2c1N)CCc1ccccc1-3	> 50 µM (inactive)
CC(Nc1ncnc2c1sc1nc(N3CCOCC3)c3c(c12)CCC3)c1ccccc1 (stereo not drawn)	> 50 µM (inactive)
Cc1nnc(NCc2cccnc2)c2c1nnn2Cc1ccccc1Cl	> 50 µM (inactive)
COc1cccc(NC(=O)Nc2nccn(-c3ccc(F)cc3)c2=O)c1	49.2 µM
CC(=O)c1ccc(NC(=O)c2ccc(N3CCCCS3(=O)=O)cc2Cl)cc1	37 µM
COc1cccc(C(=O)Nc2ccc(-n3cnnn3)cc2)c1	> 50 µM (inactive)
CSc1ncc(C(=O)NC(C)c2ccccc2)c(-c2ccccc2)n1 (stereo not drawn)	22.1 µM
CC(C)CCN1C(=O)C2C(C(=O)Nc3ccc(Oc4ccccc4)cc3)C3C=CC2(O3)C1C(=O)NC1CCCCC1 (stereo not drawn)	30.7 µM
Cc1cc(C(=O)COC(=O)c2ccc[nH]c2=O)c(C)n1-c1ccc2c(c1)OCO2	> 50 µM (inactive)
COc1ccc(CNC(=O)Nc2cccc3ccccc23)cc1	13.8 µM
O=C(COC(=O)c1ccc(NS(=O)(=O)c2ccc3c(c2)OCCO3)cc1)NCc1ccc(Cl)cc1	> 50 µM (inactive)
CCCCc1ccc(-c2cc(C(=O)NCCN3CCOCC3)c3cc(Br)ccc3n2)cc1	23.4 µM
COC(=O)c1cc2c(ccn2C)n1CC(=O)NC1CC1	> 50 µM (inactive)
Cc1cc(C)c2cc(C(=O)NC3CCN(Cc4ccccc4)CC3)[nH]c2c1	32.1 µM
COc1ccccc1-c1ccc(SCC(=O)Nc2ccc3c(c2)OCCO3)nn1	> 50 µM (inactive)
CC(=O)N1CCc2cc(S(=O)(=O)NCCC(=O)Nc3cccc(C)c3C)ccc21	23.3 µM
COc1ccc(C(=O)Nc2n[nH]c(C)c2-c2cccc(C)c2)c(OC)c1	28.7 µM

SMILES	IC50
CCCn1c(=O)c(-c2ccc(C(=O)NCc3ccc(OC)cc3)cc2)nc2cccnc21	6.42 µM
Cc1cc(=O)c2c(O)oc(O)c3c(O)cc(=O)c1c32	33.9 µM
O=C(Nc1ccc(F)cc1F)NC1CCN(c2ccccc2)C1=O (stereo not drawn)	32.9 µM
Cc1ccccc1Cn1cc(SCC(=O)Nc2ccc3c(c2)OCCO3)c2ccccc21	> 50 µM (inactive)
O=c1[nH]c(C2CCN(S(=O)(=O)c3ccc(S(=O)(=O)NC4CCCCC4)cc3)CC2)nc2c1nnn2Cc1c(F)cccc1Cl	27.9 µM
Cc1cccc(NC(=O)CSc2nnc(-c3n[nH]c4c3CCC4)n2N)c1C	17.9 µM
c1cncc(-c2nc(Nc3ccc4c(c3)OCCO4)c3ccccc3n2)c1	> 50 µM (inactive)
COc1ccc(OC)c(NC(=O)Cn2c(=O)n(CC3CCC(C(=O)NCCc4ccccc4)CC3)c(=O)c3ccccc32)c1 (stereo not drawn)	31.3 µM
Cc1ncncc1C(=O)N1CCCC(C)(c2ncc(Cc3cccc(F)c3)o2)C1 (stereo not drawn)	> 50 µM (inactive)
COc1ccc2c(C)c(CC(=O)N3CCC[C@H]3C(=O)O)c(=O)oc2c1C	> 50 µM (inactive)
CC(C)CCn1c(=O)c2ccccc2n2c(CCC(=O)NC3CCCCCC3)nnc12	> 50 µM (inactive)
Cc1ccc(Cn2cc(-c3noc(-c4ccncc4)n3)nn2)cc1	> 50 µM (inactive)
Cc1cc(NC(=O)c2cc(-c3cccnc3)n[nH]2)ccc1Br	12.2 µM
COc1ccc(C(C(=O)NCc2ccccc2)N(C(=O)CCN2CCc3ccccc32)c2ccc(C)c(C)c2)cc1 (stereo not drawn)	> 50 µM (inactive)
Cc1ccc(C)c(S(=O)(=O)N2CCC3(CC2)NC(=O)c2ccccc2N3)c1	> 50 µM (inactive)
COC(=O)c1ccc(Cn2cnc3ccc(F)cc3c2=O)o1	> 50 µM (inactive)
CN1C(=O)[C@]23CC4=CC=C[C@H](O)[C@H]4N2C(=O)[C@@]1(CO)SS3	> 50 µM (inactive)
C[C@]12C(=O)N(c3ccc(C(=O)NCc4ccc(F)cc4)cc3)C(=O)N1CCc1c2[nH]c2ccccc12	> 50 µM (inactive)
Cc1cc(O)c(=O)cc2c1C[C@H]1CC(C)(C)/C=C/C[C@@]3(C)Oc4cc(=O)c(O)cc(C)c4C[C@@H]3C[C@H](O)[C@]1(C)O2	> 50 µM (inactive)
CCOC(=O)c1sc2c(c1C)c(=O)n(Cc1ccccc1)c(=O)n2CC(N)=O	> 50 µM (inactive)
O=c1c(NCCCN2CCCC2)nc2ccncc2n1Cc1ccccc1	> 50 µM (inactive)
